Test results reported in patent publication US20240299269A1, “HYDROXY ACIDS FOR SCALP AND HAIR IN PERSONAL CARE COMPOSITIONS” (The Procter & Gamble Company, priority 2023, published 2024).

How the values were obtained:
[1] = In vitro calcium chelation screening of weak acids (octanol/water, ICP-OES); format: physicochemical; settings: for % Calcium in Water Phase: 3% hydroxy acid in water, pH approximately 3, 1000 ppm CaCO3 in octanol, vortexed 2 minutes, 2 hours
Description: A high throughput in-vitro screening method is developed to help identify lead acids that could function as calcium chelators. The intent of the method is to mimic the lipid matrix of the scalp and to quantify the amount of calcium that could be extracted from that matrix. […] Equal parts of the lipid and water phases are added to a conical vial and vortexed for 2 minutes. The vials are left to sit for 2 hours and then the lower water phase is extracted from the concial vial and submitted for Calcium analysis via ICP-OES. […] [formula]

[2] = calcium binding constant; cited from earlier work
[3] = octanol/water; cited from earlier work

| Compound | % Calcium in Water Phase [1] [%] | calcium chelation ability ([1]; among hydroxy acids screened) | logK_1 [2] | LogP [3] | logK_3 [2] |
| --- | --- | --- | --- | --- | --- |
| O=C(O)c1ccccc1O [Salicylic Acid] | 29 | lower calcium chelation ability | 1.100 | – | – |
| O=C(O)C(O)C(O)C(=O)O (stereo not drawn) [Tartaric Acid] | – | – | – | −0.760 | – |
| O=C(O)CC(O)(CC(=O)O)C(=O)O [Citric Acid] | – | – | 1.100 | – | 4.680 |
| O=C(O)[C@H](O)[C@@H](O)[C@H](O)[C@H](O)CO [Gluconic Acid] | – | – | 1.880 | −1.870 | – |
| O=C(O)CO [Glycolic Acid] | – | – | 1.590 | −1.050 | – |
| CC(O)C(=O)O (stereo not drawn) [Lactic Acid] | 78 | – | 1.450 | – | – |
